Read-outs that look alike come from different tables or passages of the source.
How the values were obtained:
[1] = Arachidonic acid plus zinc and L-histidine in drinking water for 14 days in ob/ob and lean mice (Example 2, Table 3); type: in vivo; details: for Body Weight Gain / Food Intake / Water Intake: 14 days, mean ± SEM
Method: Eight week old male C57BL/6J-obese ob/ob mice and their lean wild-type littermates were randomly divided into five groups of five mice and treated with the following levels of AA in drinking water: (i) 0 mg AA/l; (ii) 10 mg AA/l; (iii) 20 mg AA/l; (iv) 50 mg AA/l; or (v) 100 mg AA/l. 10 mg zinc and 0.5 mg L-histidine/l were also included at each level of AA described above. The treatment solutions were replaced with freshly prepared solutions every other day during the 2-week treatment period. Body weight, and food and water intake were measured every other day in the morning, beginning the first day of treatment.

[2] = cited from earlier work
[3] = system: intestinal zinc transport; details: cited from earlier work
[4] = Water intake in G-K rats treated with AA plus zinc (Example 3, FIG. 10); type: in vivo; details: One-month old G-K rats, 2 weeks
Source text: (FIG. 10). Thus, water intake was reduced in rats with all treatments containing zinc relative to DW-treated rats, but not with the AA-only treatment.

[5] = cited from earlier work; remark: listed apart in the source
[6] = system: intestinal zinc absorption; details: normal (non-diabetic) rats, oral, cited from earlier work
[7] = CHP plus zinc and L-histidine in drinking water for 21 days in ob/ob and lean mice (Example 5, Table 1); type: in vivo; details: for Body Weight Gain / Food Intake / Water Intake: 21 days, mean ± SEM
Method: Ob/ob and lean mice were randomly divided into four groups and treated with drinking water containing either 0, 0.5, 1.0, or 1.5 mg CHP/L plus 10 mg zinc and 0.5 mg L-histidine/L. Drinking water containing test substances was prepared every other day with freshly prepared solutions. During the testing non-fasting blood glucose concentrations, food and water intake, and body weight were measured every other day in the morning. Non-fasting plasma insulin concentrations and three-hour average blood glucose concentrations were determined at the end of the three-week treatment period.

[8] = cited from earlier work; remark: listed apart in the source
[9] = Plasma insulin levels in G-K rats treated with zinc and CHP (Example 1, Table 2); type: in vivo; details: for Plasma Insulin Levels (mean ± SEM): 6-month old G-K rats
Source text: However, higher doses of CHP decreased plasma insulin levels. (Table 2)

[10] = humans; CHP intake; cited from earlier work
[11] = Food and water intake in G-K rats treated with zinc or zinc plus CHP (FIGS. 6, 8); type: in vivo
[12] = Body weight and water intake in S-D rats treated with zinc or zinc plus CHP (FIGS. 4, 5, 9); details: 8-month old S-D rats; FIG. 9
[13] = Body weight and growth rate of G-K rats treated with zinc or zinc plus CHP (FIGS. 1, 2, 11-13); type: in vivo; details: one month old (young) G-K rats; FIG. 2
Source text: I believe that CHP is effective in maintaining body weight control even after the cessation of the treatment.

[14] = Lean mice, 10 mg/L AA plus 10 mg/L zinc and 0.5 mg/L L-histidine
[15] = Lean mice, 20 mg/L AA plus 10 mg/L zinc and 0.5 mg/L L-histidine
[16] = Lean mice, 50 mg/L AA plus 10 mg/L zinc and 0.5 mg/L L-histidine
[17] = Lean mice, 100 mg/L AA plus 10 mg/L zinc and 0.5 mg/L L-histidine
[18] = Ob/ob mice, 10 mg/L AA plus 10 mg/L zinc and 0.5 mg/L L-histidine
[19] = Ob/ob mice, 20 mg/L AA plus 10 mg/L zinc and 0.5 mg/L L-histidine, p < 0.05 vs 0 mg/l group
[20] = Ob/ob mice, 50 mg/L AA plus 10 mg/L zinc and 0.5 mg/L L-histidine
[21] = Ob/ob mice, 100 mg/L AA plus 10 mg/L zinc and 0.5 mg/L L-histidine
[22] = Lean mice, 0.5 mg/L CHP plus 10 mg/L zinc and 0.5 mg/L L-histidine
[23] = Lean mice, 1.0 mg/L CHP plus 10 mg/L zinc and 0.5 mg/L L-histidine
[24] = Lean mice, 1.5 mg/L CHP plus 10 mg/L zinc and 0.5 mg/L L-histidine
[25] = Ob/ob mice, 0.5 mg/L CHP plus 10 mg/L zinc and 0.5 mg/L L-histidine
[26] = Ob/ob mice, 1.0 mg/L CHP plus 10 mg/L zinc and 0.5 mg/L L-histidine
[27] = Ob/ob mice, 1.5 mg/L CHP plus 10 mg/L zinc and 0.5 mg/L L-histidine

With `CCCCC/C=C\C/C=C\C/C=C\C/C=C\CCCC(=O)O` [AA, arachidonic acid] the “Body Weight Gain” value [1, 14] was 1.0 ± 0.2 g, the “Food Intake” value [1, 14] was 143.9 ± 13.2 g/kg BW/day and the “Water Intake” value [1, 14] was 207.3 ± 23.6 ml/kg BW/day. The “Body Weight Gain” value [1, 15] was 0.6 ± 0.2 g, the “Food Intake” value [1, 15] was 129.9 ± 11.1 g/kg BW/day and the “Water Intake” value [1, 15] was 211.6 ± 23.6 ml/kg BW/day. For the same compound, the “Body Weight Gain” value [1, 16] was 1.0 ± 0.3 g, the “Food Intake” value [1, 16] was 133.1 ± 9.5 g/kg BW/day and the “Water Intake” value [1, 16] was 211.9 ± 21.5 ml/kg BW/day. For the same compound, the “Body Weight Gain” value [1, 17] was 0.6 ± 0.1 g, the “Food Intake” value [1, 17] was 130.0 ± 13.2 g/kg BW/day and the “Water Intake” value [1, 17] was 216.1 ± 21.0 ml/kg BW/day. For the same compound, the “Body Weight Gain” value [1, 18] was 2.3 ± 0.7 g, the “Food Intake” value [1, 18] was 126.5 ± 13.2 g/kg BW/day and the “Water Intake” value [1, 18] was 215.9 ± 15.2 ml/kg BW/day. For the same compound, the “Body Weight Gain” value ([1]; Ob/ob mice, 20 mg/L AA plus 10 mg/L zinc and 0.5 mg/L L-histidine) was 2.6 ± 0.4 g, the “Food Intake” value [1, 19] was 107.5 ± 9.0 g/kg BW/day and the “Water Intake” value [1, 19] was 182.9 ± 12.4 ml/kg BW/day. For the same compound, the “Body Weight Gain” value [1, 20] was 2.4 ± 1.7 g, the “Food Intake” value [1, 20] was 114.4 ± 9.9 g/kg BW/day and the “Water Intake” value ([1]; Ob/ob mice, 50 mg/L AA plus 10 mg/L zinc and 0.5 mg/L L-histidine, p < 0.05 vs 0 mg/l group) was 188.7 ± 11.5 ml/kg BW/day. The “Body Weight Gain” value [1, 21] was 2.9 ± 0.5 g, the “Food Intake” value [1, 21] was 116.0 ± 12.0 g/kg BW/day and the “Water Intake” value ([1]; Ob/ob mice, 100 mg/L AA plus 10 mg/L zinc and 0.5 mg/L L-histidine, p < 0.05 vs 0 mg/l group) was 198.9 ± 15.3 ml/kg BW/day. The “water and food intake” value ([1]; lean mice) was “no treatment effect”, the “Food intake versus those treated with only zinc and L-histidine” value ([1]; obese mice, 20 mg/L AA plus zinc, p<0.05) was “significantly lower” and the “Water intake versus those given only zinc and L-histidine” value ([1]; obese mice, 20, 50 or 100 mg AA/l, p<0.05) was “significantly lower”. For the same compound, the body weight ([1]; obese or lean mice) was “no effect”, the Water Intake ([2]; diabetic G-K rats) was “significantly reduced” and the “optimal concentration of AA required to provide improved blood glucose levels” value (shortened to “optimal concentration of AA required”) ([2]; diabetic G-K rats) was 4.0 mg/day/kg. The water consumption rates ([2]; diabetic rats, higher doses of AA) was “significantly decreased”, the “optimal concentration of AA required” value ([2]; streptozotocin induced diabetic rats) was 11 mg/day/kg and the Water Intake ([2]; streptozotocin-induced diabetic rats) was “significantly reduced”. The “zinc uptake (rate) of intestinal segments” value ([3]; jejunal / isolated intestinal segments of diabetic rats, AA added to the segment-bathing medium) was “increased significantly”, the “zinc transport rate into the circulatory system” value ([3]; jejunal segments of diabetic rats) was “did not enhance” and the “water intake reduced relative to DW-treated rats” value ([4]; AA-only treatment (20 mg/L AA)) was “not”. The Water Intake ([5]; genetically obese mice) was “significantly reduced”, the “optimal concentration of AA required” value ([5]; obese mice) was 2.0 mg/day/kg and the intestinal zinc absorption ([6]; high doses of AA, above 1.0 mg/200 g body weight) was “increased”. For the same compound, the intestinal zinc absorption ([6]; low doses of AA (0.5 mg/200 g)) was “decreased”.

In the case of `O=C1N[C@@H](Cc2cnc[nH]2)C(=O)N2CCC[C@@H]12` [CHP, cyclo-Hispro], the “Body Weight Gain” value [7, 22] is reported as 1.5 ± 0.4 g, the “Food Intake” value [7, 22] is reported as 171.7 ± 12.5 g/kg BW/day and the “Water Intake” value [7, 22] is reported as 267.1 ± 22.7 ml/kg BW/day. The “Body Weight Gain” value [7, 23] was 1.3 ± 0.5 g, the “Food Intake” value [7, 23] was 159.6 ± 7.3 g/kg BW/day and the “Water Intake” value [7, 23] was 258.2 ± 21.8 ml/kg BW/day. The “Body Weight Gain” value [7, 24] was 2.2 ± 0.9 g, the “Food Intake” value [7, 24] was 180.6 ± 19.5 g/kg BW/day and the “Water Intake” value [7, 24] was 302.5 ± 27.2 ml/kg BW/day. The “Body Weight Gain” value [7, 25] was 4.3 ± 0.8 g, the “Food Intake” value [7, 25] was 128.3 ± 7.8 g/kg BW/day and the “Water Intake” value [7, 25] was 198.2 ± 13.5 ml/kg BW/day. For the same compound, the “Food Intake” value [7, 26] was 110.6 ± 10.3 g/kg BW/day, the “Water Intake” value [7, 26] was 160.4 ± 9.7 ml/kg BW/day and the “Body Weight Gain” value ([7]; Ob/ob mice, 1.0 mg/L CHP plus 10 mg/L zinc and 0.5 mg/L L-histidine, p < 0.05 vs 0 or 0.5 mg CHP/L) was 2.3 ± 0.8 g. The “Body Weight Gain” value [7, 27] was 3.8 ± 0.9 g, the “Food Intake” value [7, 27] was 120.7 ± 10.4 g/kg BW/day and the “Water Intake” value [7, 27] was 192.5 ± 16.8 ml/kg BW/day. For the same compound, the “Water and food intake relative to the other treatment groups” value ([7]; ob/ob mice, 1.0 mg CHP plus zinc and L-histidine, difference not significant) was “lowest”, the “Body weight gain relative to those given zinc and L-histidine only” value ([7]; ob/ob mice, 1.0 mg CHP/L plus zinc and L-histidine, P<0.05) was “significantly reduced” and the Water Intake ([8]; intraventricular administration) was “significantly reduces”. For the same compound, the Food Intake ([8]; rats, CHP intake) was “decreases”, the “Plasma Insulin Levels (mean ± SEM)” value ([9]; CHP only 1.0 mg/L in drinking water) was 0.907 ± 0.090 ng/mL and the plasma insulin levels ([9]; hyperinsulinemic diabetic G-K rats, higher / increasing doses of CHP) was “decreased”. For the same compound, the Food Intake [10] was “decreases”.

In the case of `[Zn]` [zinc], the Water Intake ([11]; 1.0-month-old rats) is reported as “not affected”, the “Water intake compared to distilled water (DW) treated rats” value ([11]; 10 month old G-K rats, P<0.01, FIG. 8) is reported as “significantly lower” and the water intakes [12] is reported as “significantly decreased”. For the same compound, the growth rates [13] was “not affected”, the “Plasma Insulin Levels (mean ± SEM)” value ([9]; zinc only 10 mg/L in drinking water) was 0.637 ± 0.048 ng/mL and the Water Intake ([4]; 10 mg/L zinc only) was “significantly decreased”.

Reference: patent publication US7144865B2, “Compositions and methods for treating obesity” (The United States of America as represented by the …, priority 2003, dated 2006)
